Results: US4752614A, “Pharmaceutical compositions of tellerium and selenium compounds for the induction of in vivo and in vitro production of cytokines” (Bar-Ilan University, priority 1987, dated 1988)
Values joined by “and” are separate entries in the source; they are usually repeats but may differ in a detail not shown here. Identical values can stand only once. “Also recorded” adds a separate entry of the source.

Legend:
IL-2 [1] = test: IL-2 secretion by mouse spleen cells in vitro, CTLD proliferation (Example 17); format: cell-based, male Balb/c mice; details: 24 hours, 1 μg/ml of cell mixture
Experimental: The compounds listed below were tested in vitro at various concentrations that ranged from 10 μg/ml cells to 1×10^-6 μg/ml of cell mixtures. Cells were obtained from spleens of male Balb/c mice 6-8 weeks of age. Spleens were pushed through a stainless steel 60 mesh strainer to separate cells.

[2] = test system: experimentally induced tumor; test: In vivo effect on methylcholanthrene (MCA) induced tumor (Example 5); parameters: species or system C3 Heb mice; details: 10 μg IP
Experimental: (§1) A solution of 0.2% of methylcholanthrene (MCA, Sigma, USA) was prepared by dissolving 2 mg of the carcinogen in 1.0 ml of olive oil (Ref: Petra, et al., Cancer 19:302, 1961) with continuous shaking at 37° C. for 30 minutes. Six to eight week old C3 Heb mice were injected with 0.6 mg MCA/0.3 ml of solvent/mouse subcutaneously in the rear right thigh. After 21-30 days the induced tumor was surgically removed and pushed through 60 mesh stainless nets to obtain isolated cells. These cells were then further injected subcuteneously into the rear right thigh of C3 Heb mice 5 to 8 weeks of age, at a concentration of 10^6 cells/0.3 ml PBS/mouse/hypodermic needle 25 gauge, 5/8" to further induce tumor formation.
Five days after injection of the tumor cells, a palpable tumor was induced. The animals were thereafter treated as follows:
(a) control (0.2 ml 40% DMSO 60% PBS, IP 1 day after the induced tumor was palpable)
(b) 10 μg of compound of Example 1, IP to 5 mice (in 0.2 ml 40% DMSO 60% PBS, 3 days after the induced tumor was palpable and a second injection of 10 μg of compound in the same solvent was administered 5 days after the first injection to 3 of the 5 mice.
All animals expired 35 to 38 days after the initial innoculation.

West Nile virus (WNV) = test: West Nile virus infection in mice (Example 22); format: in vivo, ICR mice; details: for # Alive/Total Animals: Table A; for # Alive/Total Animals / # Alive/Total: preliminary; for # Alive/Total: Table B
Experimental: The compounds may be used as anti-bacterial or anti-viral agents in plants or in animals. Virus infections such as West Nile virus infections in mice are susceptible to the compound of the Example 1 at a dose of 10 μg/day/mouse. Plant bacterial infections such as crown gall caused by Agrobacterium tumefaciens may be treated or prevented by the application of a 0.1% solution of compounds of the invention.
The effect of the compound of Example 1 on an infection with West Nile virus (WNV) was determined. WNV is a toga virus of the flavivirus group, a positive single stranded RNA virus, which when injected IP to mice usually kills them within 5-8 days as a result of extensive damage to the central nervous system. For this study ICR mice (3 wks of age) were injected IP with the virus at the concentration of 10^3 or 10^4 LD 50 units/mouse. Injections of 10 μg/0.2 ml PBS/mouse of the compound of Ex. 1 were given on day -1 (one day prior to injection of virus) and 6 days after injection of virus.
In a second experiment, mice were injected with 10^3 IPLD50 virus and received injections of the compound of Example 1 (1 μg/0.2 ml PBS/mouse) on days -1, 1, 2 and 4.

fibrosarcoma cells = test: Survival of mice with methylcholanthrene induced fibrosarcoma (Example 6); format: in vivo, Balb-c mice; parameters: mortality: concentration or dose not given beside the values
Experimental: as §1
Balb-c mice, age 7 weeks were injected with methylcholanthrene to induce the formation of fibrosarcoma cells according to the procedure of Example 5. The test animals were divided into two groups.
(a) control (0.2 IP of 40% DMSO and 60% PBS)

receptor sites for IL-2 = test: Detection of IL-2 receptors with fluoresceinated antibody (Example 21); format: cell-based, human; details: 1 μg/ml, 24 hours
Experimental: This example provides an assay to detect the presence of receptor sites for IL-2. […] The cells were washed twice with PDS and then incubated with a specific fluoresceinated antibody against IL-2 receptors as described in Uchiyama et al, J. Immunol.

IL-2 [3] = test: Oral administration in drinking water, IL-2 content of spleen cell supernatants (Example 13); format: in vivo, male Balb-C mice; details: 1 μg/ml H2O, 4 days
Experimental: The water solution was prepared by dissolving the compounds in PBS at a concentration of 50 μg/ml PBS and diluting the resulting solution to the desired concentration. The compounds were administered over a 4 day period. The exact amount of liquid intake was recorded daily. […] The cells were incubated at a concentration of 10^7 cells/ml in enriched RPMI containing 2 μg/ml of con-A for 24 hours at 37° C. The supernatants were collected and tested for IL-2 content.

IL-2 [4] = test: Oral administration in powdered sucrose, IL-2 content (Example 13); format: in vivo, mice; details: for IL-2 content: oral, 24 hours
Experimental: The compound of Example 1 was thoroughly mixed with powdered sucrose and 10 μg of the compound of example 1 in 25 mg of powdered sucrose was placed in the mouth of each mouse.
After 24 hours the mice were sacrificed and the spleens were processed as described above.

[5] = Preliminary toxicity (LD50) in mice; format: in vivo; details: 6 week old mice

## Cl[TeH]1(Cl)(Cl)OCCO1 [Example 1]
IL-2 [1]
  Spleen Cells (IL-2 activity): 14,600 cpm
IL-2 [1]; Mus musculus, read-out: Spleen Cells, percent in parentheses (increase over control)
  activation at 1 µg/mL: 472%
[2]; day 3, individual mouse
  Vol. of Tumor (13 days): 0.77 and 1.66
[2]; day 3 and 5, individual mouse
  Vol. of Tumor (13 days): 0.7 and 0.52 and 0.31
West Nile virus (WNV); 10 μg/day/mouse
  susceptibility of West Nile virus infections in mice: susceptible
West Nile virus (WNV); 10^3 IPLD50, 1 μg/mouse days -1, 1, 2 and 4
  survival beyond day 8: Two out of the remaining three survived an additional 8 days; also recorded: the third remained alive without any manifestations of clinical symptoms
West Nile virus (WNV); 10^3 LD50 virus, 10 μg/mouse days -1 and 6, after 8 days
  # Alive/Total Animals: 3/5
West Nile virus (WNV); 10^4 LD50 virus, 10 μg/mouse days -1 and 6, after 8 days
  # Alive/Total Animals: 3/5
West Nile virus (WNV); no virus (0), 10 μg/mouse days -1 and 6
  # Alive/Total Animals: 6/6
West Nile virus (WNV); 10^3 IPLD50, 1 μg/mouse days -1, 1, 2 and 4, day 8
  # Alive/Total: 3/5
West Nile virus (WNV); compound alone, 1 μg/mouse days -1, 1, 2 and 4, day 8
  # Alive/Total: 5/5
Fibrosarcoma cells; 10 μg IP, day 4 after innoculation
  % Survival: 100%
Fibrosarcoma cells; 10 μg IP, day 9
  % Survival: 100%
Fibrosarcoma cells; 10 μg IP, day 23
  % Survival: 100%
Fibrosarcoma cells; 10 μg IP, day 30
  % Survival: 100%
Fibrosarcoma cells; 10 μg IP, day 37
  % Survival: 100%
Fibrosarcoma cells; day 39, start of increased dosage regimen
  % Survival: 100%
Fibrosarcoma cells; day 41, increased dosage
  % Survival: 100%
Fibrosarcoma cells; day 43, increased dosage
  % Survival: 100%
Fibrosarcoma cells; day 46, increased dosage
  % Survival: 80%
Fibrosarcoma cells; day 48, increased dosage
  % Survival: 80%
Fibrosarcoma cells; day 50, increased dosage
  % Survival: 80%
Fibrosarcoma cells; day 53, increased dosage
  % Survival: 60%
Fibrosarcoma cells; day 60, increased dosage
  % Survival: 40%
Fibrosarcoma cells; day 67
  % Survival: 20%
Fibrosarcoma cells; day 68
  % Survival: 0%
Fibrosarcoma cells; group (b), until just after the increased dosage regimen (day 39)
  mortality: 0%
Receptor sites for IL-2
  cells positive for IL-2 receptors: 20%
IL-2 [3]
  IL-2 content: 49179 cpm
  Percent increase as compared to control: +50%
IL-2 [4]; Test 1, 10 μg in 25 mg sucrose
  IL-2 content: 250,175 cpm and 166,475 cpm
IL-2 [4]; Test 2, 10 μg in 25 mg sucrose
  IL-2 content: 55,382 cpm and 41,938 cpm and 29,172 cpm
IL-2 [4]; given in dry form or hydrolyzed in an aqueous diluent
  induction of lymphokine production: active
[5]
  LD50: 300 μg./25 g of body weight
